In PMC10251509, “Ultrafast Fragment Screening Using Photo-Hyperpolarized (CIDNP) NMR” (Journal of the American Chemical Society, 2023):

Tests used:
Format in all cases: binding
PIN1 [1] = target: T1, PIN1 (Homo sapiens, UniProt Q13526); experiment: saturation transfer difference (STD) NMR, PIN1; design: key to STD: The observation of ligand signals in the STD NMR spectra detects a protein–ligand interaction; (+); the absence of a signal fails to detect protein–ligand interaction (−); conditions: 200 μM ligand with 20 μM protein
T1 construct: polyhistidine (N); made in house; host or cells: Escherichia coli BL21 (DE3)
Procedure: (§1) For comparison, the signal decay during a T1ρ NMR experiment was measured at the same sample conditions as the photo-CIDNP experiments (Table 2). The signal decay between two T1ρ relaxation delays of 10 and 400 ms is measured in the absence and presence of the PIN1 protein. The increase in signal decay is calculated as the ratio of the integral’s ratio, i.e., (Γ400ms/Γ10ms)PL/(Γ400ms/Γ10ms)L. The most affine binders, compounds 1 and 13, show a significant reduction of the T1ρ decay ratio upon PIN1 addition, witnessing an increase in the relaxation decay. […] The signal-to-noise of the T1ρ spectra were ca. 300 for a number of transients of 512, corresponding to a measurement time of 25 min, while the photo-CIDNP experiments provided a signal-to-noise of ca. 100 for a single-scan experiment corresponding to a two second’s experiment. […] The signal-to-noise of the STD NMR experiments[1] was only 25 and 19 for compounds 1 and 13, respectively, after 50 min measurement corresponding to a 512 transient’s experiment.
(§2) For the control binding experiments using ligand-induced chemical shift perturbation analysis, standard [^15N, ^1H]-HSQC spectra were measured. The detailed conditions for the 2D experiments acquired at 600 MHz ^1H NMR frequency were the 100 μM ^15N-labeled PDZ2 domain in the absence and presence of equimolar peptide in PDZ2 buffer and at a temperature of 298 K and 50 μM ^15N-labeled PIN1 in the absence and presence of 200 μM ligands in PIN1 buffer and at a temperature of 298 K, respectively. Typically, 220 (t1,max (^15N) = 47.6 ms) × 1024 (t2,max (^1H) = 60.8 ms) complex points, an interscan delay of 0.8 s, and 12 scans per increment were measured. The data was zero–filled to 2048 points in the direct proton dimension and to 256 points in the ^15N–dimension. Processing was done with a shifted cosine window function for both dimensions. […] The spinlock times were set at 10 and 400 ms. The STD experiments were measured at 298 K with 16,384 (tmax (^1H) = 974 ms) complex points and 512 scans per increment. The on-resonance saturation pulse was set at 0 ppm, and the off-resonance saturation pulse was set to 40 ppm with a saturation time of 1 s.

PIN1 [2] = target: T1, PIN1; experiment: T1ρ relaxation NMR experiment, PIN1
Procedure: as §1, §2

PIN1 [3] = target: T1, PIN1; experiment: [15N,1H]-HSQC hit validation (chemical shift perturbations) on 15N-labeled PIN1; conditions: 50 μM 15N-labeled PIN1, 200 μM fragment
Procedure: As proposed in the theoretical part, the photo-CIDNP traces were recorded in the presence and absence of PIN1. The peak intensity and chemical shifts were analyzed pairwise to identify the hits. […] The reference apo-PIN1 sample was spiked with 1.9 μL of DMSO to compensate for the DMSO that is introduced upon fragment addition, as the fragments are stored in stock solutions of 5 mM 90% DMSO-d6 and 10% D2O.
For the control binding experiments using ligand-induced chemical shift perturbation analysis, standard [^15N, ^1H]-HSQC spectra were measured. […] Processing was done with a shifted cosine window function for both dimensions. […] The spinlock times were set at 10 and 400 ms.

T1 sequence (Q13526 whole entry): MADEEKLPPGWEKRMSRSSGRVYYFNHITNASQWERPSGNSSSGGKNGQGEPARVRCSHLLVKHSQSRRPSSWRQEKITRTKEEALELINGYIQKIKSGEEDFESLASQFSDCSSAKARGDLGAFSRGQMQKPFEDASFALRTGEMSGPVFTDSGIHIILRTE

STD (PIN1 [1]): + | STD NMR observation (PIN1 [1]; 512 transients): shows a signal | T1ρ decay ratio (PIN1 [2]; 200 μM ligand, ±20 μM protein, (Γ400ms/Γ10ms)PL/(Γ400ms/Γ10ms)L): 0.45 | T1ρ decay ratio (PIN1 [2]; low concentration, same sample conditions: 20 μM ligand (compound 1: 5 μM), ±2 μM PIN1): 0.76 | fragment-induced CSPs in [15N,1H]-HSQC (PIN1 [3]): strong CSPs | median CSP (PIN1 [3]; median only of signals showing CSP): 0.119
Structure (SMILES): Cc1cccc(-c2nc(C)c(C(=O)O)[nH]2)c1 [Compound 13, reference compound]
